SMILES strings stand for the structures. Structures can show the parent of a compound that is named as a salt.
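Further: Luminescence-based viability readout, five doses per compound, normalized against on-plate DMSO and empty-well controls, followed by dose-response curve fitting for every drug.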

The test has as its system HCT116. The experiment in a line: efficacy (fitted maximal change in viability relative to DMSO control); higher = less cytotoxic (negative = loss of viability). To be noted: 48 h.
Take `Clc1cccc(-c2ccc(-c3nnc(CCCc4ccc5cccnc5n4)o3)cc2)c1` [PRP003-073]: the efficacy was -17.9%.

For `O=C(Nc1cc(Cl)cc2c1[nH]c1cnccc12)c1cccnc1` [PS-1145], the efficacy was found to be 18.5%. Take `C[S+](=O)([O-])c1ccc(Oc2cc(F)cc(C#N)c2)c2c1[C@H](O)C(F)(F)C2` [PT-2385]: the efficacy was -10.6%. In the case of `O=C(O)c1cccc(-c2noc(-c3ccccc3F)n2)c1` [PTC-124] it was -22.5%; in that of `C=CCN(/C=C1\C(=O)O[C@@H](COC)[C@]2(C)C1=C(O)C(=O)C1=C2[C@@H](OC(C)=O)C[C@]2(C)C(=O)CC[C@H]12)CC=C` [PX-866], -20.5%. To `CN1CCCN=C1/C=C/c1cccs1` [PYRANTEL PAMOATE] belongs -47%; to `CC(=O)O[C@H]1C(=O)[C@]2(C)[C@@H](O)C[C@H]3OC[C@@]3(OC(C)=O)C2[C@H](OC(=O)C4=CC=CC=C4)[C@]5(O)C[C@H](OC(=O)[C@H](O)[C@@H](NC(=O)C6=CC=CC=C6)C7=CC=CC=C7)\C(=C1/C5(C)C)C` (stereo partly specified) [Paclitaxel], -68.3%. To `CC(=O)O[C@H]1C[C@@H]2CC[C@@H]3[C@H](CC[C@@]4(C)[C@H]3C[C@H]([N+]3(C)CCCCC3)[C@@H]4OC(C)=O)[C@@]2(C)C[C@@H]1[N+]1(C)CCCCC1` [Pancuronium bromide] belongs -8.83%; to `COc1ccnc(C[S+]([O-])c2nc3cc(OC(F)F)ccc3[nH]2)c1OC` (stereo unspecified) [Pantoprazole], -34.5%; to `CCC(=O)[N-]S(=O)(=O)c1ccc(-c2c(-c3ccccc3)noc2C)cc1.[Na+]` [Parecoxib sodium], -9.88%. Regarding `CCN1\C=C(C(O)=O)/C(=O)C2=C1C=C(N3CCN(C)CC3)C(=C2)F` [Pefloxacin], the efficacy amounted to 5.51%. To `CSCC[C@H](NC(=O)[C@H](Cc1c[nH]c2ccccc12)NC(=O)CCNC(=O)OC(C)(C)C)C(=O)N[C@@H](CC(=O)O)C(=O)N[C@@H](Cc1ccccc1)C(N)=O` [Pentagastrin] belongs -5.16%; to `CC(C)CC(=O)N[C@H](C(=O)N[C@H](C(=O)N[C@@H](CC(C)C)[C@@H](O)CC(=O)N[C@@H](C)C(=O)N[C@@H](CC(C)C)[C@@H](O)CC(=O)O)C(C)C)C(C)C` [Pepstatin], -6.41%. To `CCC[C@H](N[C@@H](C)C(=O)N1[C@H](C(=O)O)C[C@@H]2CCCC[C@@H]21)C(=O)OCC` [Perindopril] belongs 9%; to `FC(F)(F)c1ccc(CNc2ccc(Cc3c[nH]c4ncc(Cl)cc34)cn2)cn1` [Pexidartinib], -21.9%; to `NNCCc1ccccc1.O=S(=O)(O)O` [Phenelzine], -40.1%. In the case of `CC(COc1ccccc1)N(CCCl)Cc1ccccc1` (stereo unspecified) [Phenoxybenzamine hydrochloride] it was -19.8%; in that of `O=C(CCc1ccc(O)cc1)c1c(O)cc(O)cc1O` [Phloretin], 6.68%; in that of `O=C(CCc1ccc(O)cc1)c1c(O)cc(O)cc1O[C@@H]1O[C@H](CO)[C@@H](O)[C@H](O)[C@H]1O` [Phlorizin], -28.6%. Regarding `Nc1nccc(-c2ccc3noc(-c4ccc(Cl)cc4)c3c2)n1` [Pim 1 Inhibitor 2], the efficacy is -55%.

`CCc1ccc(CCOc2ccc(CC3SC(=O)NC3=O)cc2)nc1` (stereo unspecified) [Pioglitazone hydrochloride]: the efficacy came out at 16.5%.

Consider `Clc1ccc2c(N3CCN(CCCN4CCN(c5ccnc6cc(Cl)ccc56)CC4)CC3)ccnc2c1` [Piperaquine], for which the efficacy was -15.3%. To `c1cc(CN2CCCNCCNCCCNCC2)ccc1CN1CCCNCCNCCCNCC1` [Plerixafor hydrochloride] belongs -8.04%.

`COc1cc([C@@H]2c3cc4c(cc3[C@H](O)[C@H]3COC(=O)[C@H]23)OCO4)cc(OC)c1OC` [Podofilox]: the efficacy is -62.3%.

On to `CCC(C)CCCCC(=O)N[C@@H](CCN)C(=O)NC(C(=O)N[C@H](CCN)C(=O)N[C@@H]1CCNC(=O)C([C@@H](C)O)NC(=O)[C@@H](CCN)NC(=O)[C@@H](CCN)NC(=O)[C@@H](CC(C)C)NC(=O)[C@H](Cc2ccccc2)NC(=O)[C@H](CCN)NC1=O)[C@@H](C)O` (stereo partly specified) [Polymyxin B sulphate], for which the efficacy was -10.6%. To `Nc1cccc2c1C(=O)N(C1CCC(=O)NC1=O)C2=O` (stereo unspecified) [Pomalidomide] belongs -14.1%. To `COC12C(COC(N)=O)\C3=C(/N1CC4C2N4C)C(=O)C(=C(N)/C3=O)\C` (stereo unspecified) [Porfiromycin] belongs -81%; to `O=C(O)C[C@H]1CC[C@H](c2ccc(-c3ccc(Nc4ccc(C(F)(F)F)nc4)cn3)cc2)CC1` [Pradigastat], -15.9%.

Regarding `CCO[C@@H]1OC(=O)C[C@@H]1NC(=O)[C@@H]1CCCN2C(=O)CC[C@H](NC(=O)c3nccc4ccccc34)C(=O)N12` [Pralnacasan], the efficacy was -15.4%. For the compound `CC[C@H](C)C(=O)O[C@H]1C[C@H](O)\C=C2\C=C/[C@H](C)[C@H](CC[C@@H](O)C[C@@H](O)CC(O)=O)[C@@H]12` [Pravastatin sodium], the efficacy was -7.8%.

Take `O=C(C1CCCCC1)N1CC(=O)N2CCc3ccccc3C2C1` (stereo unspecified) [Praziquantel]: the efficacy is -15.9%. In the case of `C[C@]12CC(=O)[C@H]3[C@@H](CC\C4=C\C(=O)\C=C/[C@]34C)[C@@H]1CC[C@]2(O)C(=O)CO` [Prednisone] it was 8.5%; in that of `CC(C)C[C@H](CN)CC(=O)O` [Pregabalin], -8.5%; in that of `CC(=O)[C@H]1CC[C@H]2[C@@H]3C/C=C4/C[C@@H](O)CC[C@]4(C)[C@H]3CC[C@]12C` [Pregnenolone], -6.65%. In the case of `COCCOc1ccc(N2CCN(CCn3ncc4c3nc(N)n3nc(-c5ccco5)nc43)CC2)cc1` [Preladenant] it was -16%. For the compound `C=Cc1cc(O)cc2nc(-c3ccc(O)c(F)c3)oc12` [Prinaberel], the efficacy was -14.8%. As to `CC(C)(Sc1cc(C(C)(C)C)c(O)c(C(C)(C)C)c1)Sc1cc(C(C)(C)C)c(O)c(C(C)(C)C)c1` [Probucol], the efficacy is -25.9%. In the case of `CNNCc1ccc(C(=O)NC(C)C)cc1` [Procarbazine hydrochloride] it was -10.4%; in that of `CC[C@H](NC(C)C)[C@H](O)C1=CC=C(O)C2=C1\C=C/C(=O)N2` [Procaterol hydrochloride], 6.79%. With `CCCN(CCC)C(=O)C(CCC(=O)O)NC(=O)c1ccccc1` (stereo unspecified) [Proglumide], the efficacy was -18.3%. In the case of `CCCNCC(O)COc1ccccc1C(=O)CCc1ccccc1` (stereo unspecified) [Propafenone hydrochloride] it was -43.8%; in that of `CCCOc1ccc(C(=O)OCCN(CC)CC)cc1N` [Proparacaine], -20.7%.

`CC(C)c1cccc(C(C)C)c1O` [Propofol]: the efficacy is -8.33%. In the case of `CCCCC[C@H](O)/C=C/[C@H]1[C@H](O)CC(=O)[C@@H]1C/C=C\CCCC(=O)O` [Prostaglandin E2] it was -28.6%. To `CCCc1cc(C(N)=S)ccn1` [Protionamide] belongs -9.17%; to `OC[C@H]1O[C@H]([C@H](O)[C@@H](O)[C@@H]1O)C2=C(O)C=CC3=C2O/C=C(C3=O)/C4=CC=C(O)C=C4` [Puerarin], -15.8%; to `CC(C)[C@H](CO)Nc1nc(Nc2ccc(C(=O)O)c(Cl)c2)c2ncn(C(C)C)c2n1` [Purvalanol B], -11.6%. To `CC(C)(C)C1=NC2=C([NH]1)C3=CC=C(F)C=C3C4=C2\C=C/NC4=O` [Pyridone 6] belongs -28.4%; to `OC1=CC2=C(C(=C1)O)C(=O)\C(=C(/O2)C3=CC(=C(O)C=C3)O)O` [Quercetin], -10.2%. For `C=C[C@H]1CN2CCC1C[C@@H]2C(O)c1ccnc2ccc(OC)cc12` (stereo partly specified) [Quinidine], the efficacy was -25.6%.

`CN1C(=O)\C(=C/C2=C1N=C(NC3CCOCC3)N=C2)OC4=C(F)C=C(F)C=C4` [R-1487]: the efficacy was -14.4%.

Take `CCc1cccc2c3c([nH]c12)[C@@](CC)(CC(=O)O)OCC3` [R-Etodolac]: the efficacy was -22.7%. To `CNC(=O)c1ccc(N2C(=S)N(c3ccc(C#N)c(C(F)(F)F)c3)C(=O)C23CCC3)cc1F` [RD-162] belongs -28.5%; to `C[C@H]1CN(CCN1C2=CN=C(NC/3=C/C(=C\N(C)C3=O)C4=CC=NC(=C4CO)N5CC[N]6C7=C(CC(C)(C)C7)C=C6C5=O)C=C2)C8COC8` [RG-7845 (GDC-0853)], -34.1%; to `OCc1ccc(-c2ccc(-c3ccc(CO)s3)o2)s1` [RITA], -46%.

For `Cc1ccc(Nc2cc(N[C@@H]3CCCC[C@@H]3N)nnc2C(N)=O)nc1C` [RO-9021], the efficacy is -74.9%. With `O=C(CBr)N1CC([N+](=O)[O-])([N+](=O)[O-])C1` [RRx-001], the efficacy was -23.7%. To `CCC(C)CNCC(=O)N1CCc2sccc2C1c1cccc(C)n1` (stereo unspecified) [RUSKI-201] belongs -17%; to `CN(CC1=CC2=C(N\C(=N/C2=O)C)C=C1)C3=CC=C(S3)C(=O)N[C@@H](CCC(O)=O)C(O)=O` [Raltitrexed], -59%. With `CCC(=O)NCC[C@@H]1CCc2ccc3c(c21)CCO3` [Ramelteon], the efficacy is -25.2%.

Take `CCOC(=O)[C@H](CCc1ccccc1)N[C@@H](C)C(=O)N1[C@H](C(=O)O)C[C@@H]2CCC[C@@H]21` [Ramipril]: the efficacy is -13.7%. To `COc1ccccc1OCC(O)CN1CCN(CC(=O)Nc2c(C)cccc2C)CC1` (stereo unspecified) [Ranolazine] belongs -11.9%; to `C#CCN[C@@H]1CCc2ccccc21` [Rasagiline mesylate], -9.57%; to `CCOc1cc(CC(=O)N[C@@H](CC(C)C)c2ccccc2N2CCCCC2)ccc1C(=O)O` [Repaglinide], -23%. In the case of `CCOCc1nc2c(N)nc3ccccc3c2n1CC(C)(C)O` [Resiquimod] it was -14.3%. Regarding `CCOC(=O)Nc1ccc(NCc2ccc(F)cc2)cc1N` [Retigabine], the efficacy is -11.8%.

For the origin of these results see the supplement of paper PMC10290057.
